IC50 data for 31 compounds are collected here from patent publication US10689381B2 (priority 2017, dated 2020).

One assay relates to L1210. Kind of assay: cells. It counts as cell-based, mouse. An outline of the steps: (§1)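 Cells seeded at 30,000 cells/mL in DMEM with 10% FBS, then exposed for 72 h to compound at six concentrations spanning 0–1000 nM or 0–10000 nM, in duplicate. Final incubation at 37 °C lasted 5 min for L1210 and 15 min for HCT116.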
The test system of a further assay is HCT116. Kind of assay: cells. The assay is classed as cell-based, human. The following applies: read-out: IC50 HCT116. The essentials: as §1

Read-outs that look alike come from different tables or passages of the source.

For orientation: IC50 means the midpoint of a concentration-inhibition curve. As to `CCC1(NC(=O)c2ccc3ccncc3c2)CC2CN(CCc3c([nH]c4ccccc34)C(C(=O)OC)(c3cc4c(cc3OC)N(C)C3C(O)(C(=O)OC)C(OC(C)=O)C5(CC)C=CCN6CCC43C65)C2)C1` (centres unmarked) [Compound 153], the IC50 with L1210 (Table 6) and with HCT116 (Table 6) was 0.4 nM in each case.

For the compound `CCC1(NC(=O)c2ccc3cnccc3c2)CC2CN(CCc3c([nH]c4ccccc34)C(C(=O)OC)(c3cc4c(cc3OC)N(C)C3C(O)(C(=O)OC)C(OC(C)=O)C5(CC)C=CCN6CCC43C65)C2)C1` (centres unmarked) [Compound 154], the IC50 in the assay with L1210 (Table 6) and in the assay with HCT116 (Table 6) was 0.6 nM each time.

On to `CC[C@]1(NC(=O)c2ccc3nccnc3c2)C[C@H]2CN(CCc3c([nH]c4ccccc34)[C@@](C(=O)OC)(c3cc4c(cc3OC)N(C)[C@H]3[C@@](O)(C(=O)OC)[C@H](OC(C)=O)[C@]5(CC)C=CCN6CC[C@]43[C@@H]65)C2)C1` [Compound 155], for which the IC50 with L1210 (Table 6) and in the assay with HCT116 (Table 6) was 0.6 nM each time.

For the compound `CCC1(NC(=O)c2cnc3ccccc3n2)CC2CN(CCc3c([nH]c4ccccc34)C(C(=O)OC)(c3cc4c(cc3OC)N(C)C3C(O)(C(=O)OC)C(OC(C)=O)C5(CC)C=CCN6CCC43C65)C2)C1` (centres unmarked) [Compound 156], the values for the IC50 in the assay with L1210 (Table 6) and with HCT116 (Table 6) were 6.2 nM and 5.9 nM, respectively.

Turning to `CCC1(NC(=O)c2ccc3ccoc3c2)CC2CN(CCc3c([nH]c4ccccc34)C(C(=O)OC)(c3cc4c(cc3OC)N(C)C3C(O)(C(=O)OC)C(OC(C)=O)C5(CC)C=CCN6CCC43C65)C2)C1` (centres unmarked) [Compound 157], the IC50 in the assay with L1210 (Table 6) is 3.3 nM; in the assay on HCT116 (Table 6), 2.2 nM.

On to `CCC1(NC(=O)c2ccc3occc3c2)CC2CN(CCc3c([nH]c4ccccc34)C(C(=O)OC)(c3cc4c(cc3OC)N(C)C3C(O)(C(=O)OC)C(OC(C)=O)C5(CC)C=CCN6CCC43C65)C2)C1` (centres unmarked) [Compound 158], for which the IC50 with L1210 (Table 6) came to 5 nM; in the assay on HCT116 (Table 6) it was 3.8 nM.

In the case of `CCC1(NC(=O)c2coc3ccccc23)CC2CN(CCc3c([nH]c4ccccc34)C(C(=O)OC)(c3cc4c(cc3OC)N(C)C3C(O)(C(=O)OC)C(OC(C)=O)C5(CC)C=CCN6CCC43C65)C2)C1` (centres unmarked) [Compound 159], the IC50 was determined as 4 nM with L1210 (Table 6) and 4.6 nM in the assay on HCT116 (Table 6).

`CC[C@]1(NC(=O)c2cc3ccccc3o2)C[C@H]2CN(CCc3c([nH]c4ccccc34)[C@@](C(=O)OC)(c3cc4c(cc3OC)N(C)[C@H]3[C@@](O)(C(=O)OC)[C@H](OC(C)=O)[C@]5(CC)C=CCN6CC[C@]43[C@@H]65)C2)C1` [Compound 160]: the results for the IC50 in the assay on L1210 (Table 6) and with HCT116 (Table 6) were 1.8 nM and 1.1 nM, respectively.

For `CCC1(NC(=O)c2ccc3c(c2)CCO3)CC2CN(CCc3c([nH]c4ccccc34)C(C(=O)OC)(c3cc4c(cc3OC)N(C)C3C(O)(C(=O)OC)C(OC(C)=O)C5(CC)C=CCN6CCC43C65)C2)C1` (centres unmarked) [Compound 161], the IC50 with L1210 (Table 6) is 0.3 nM; in the assay on HCT116 (Table 6), 0.25 nM.

With `CC[C@]1(NC(=O)c2ccc3ccsc3c2)C[C@H]2CN(CCc3c([nH]c4ccccc34)[C@@](C(=O)OC)(c3cc4c(cc3OC)N(C)[C@H]3[C@@](O)(C(=O)OC)[C@H](OC(C)=O)[C@]5(CC)C=CCN6CC[C@]43[C@@H]65)C2)C1` [Compound 162], the IC50 in the assay on L1210 (Table 6) is 3.1 nM; in the assay on HCT116 (Table 6), 2.9 nM.

For the compound `CCC1(NC(=O)c2ccc3sccc3c2)CC2CN(CCc3c([nH]c4ccccc34)C(C(=O)OC)(c3cc4c(cc3OC)N(C)C3C(O)(C(=O)OC)C(OC(C)=O)C5(CC)C=CCN6CCC43C65)C2)C1` (centres unmarked) [Compound 163], the IC50 in the assay with L1210 (Table 6) came to 4.2 nM; in the assay with HCT116 (Table 6) it was 4.9 nM.

For `CC[C@]1(NC(=O)c2csc3ccccc23)C[C@H]2CN(CCc3c([nH]c4ccccc34)[C@@](C(=O)OC)(c3cc4c(cc3OC)N(C)[C@H]3[C@@](O)(C(=O)OC)[C@H](OC(C)=O)[C@]5(CC)C=CCN6CC[C@]43[C@@H]65)C2)C1` [Compound 164], the IC50 was determined as 5.2 nM with L1210 (Table 6) and 5.7 nM with HCT116 (Table 6).

Turning to `CC[C@]1(NC(=O)c2cc3ccccc3s2)C[C@H]2CN(CCc3c([nH]c4ccccc34)[C@@](C(=O)OC)(c3cc4c(cc3OC)N(C)[C@H]3[C@@](O)(C(=O)OC)[C@H](OC(C)=O)[C@]5(CC)C=CCN6CC[C@]43[C@@H]65)C2)C1` [Compound 165], the IC50 with L1210 (Table 6) turned out to be 3.1 nM; in the assay on HCT116 (Table 6), 1.9 nM.

Regarding `CCC1(NC(=O)c2ccc3c(c2)ncn3C)CC2CN(CCc3c([nH]c4ccccc34)C(C(=O)OC)(c3cc4c(cc3OC)N(C)C3C(O)(C(=O)OC)C(OC(C)=O)C5(CC)C=CCN6CCC43C65)C2)C1` (centres unmarked) [Compound 166], the IC50 in the assay on L1210 (Table 6) was found to be 0.7 nM; in the assay with HCT116 (Table 6), 0.6 nM.

In the case of `CC[C@]1(NC(=O)c2ccc3ncoc3c2)C[C@H]2CN(CCc3c([nH]c4ccccc34)[C@@](C(=O)OC)(c3cc4c(cc3OC)N(C)[C@H]3[C@@](O)(C(=O)OC)[C@H](OC(C)=O)[C@]5(CC)C=CCN6CC[C@]43[C@@H]65)C2)C1` [Compound 167], the IC50 in the assay on L1210 (Table 6) and with HCT116 (Table 6) was 0.6 nM throughout.

On to `CCC1(NC(=O)c2ccc3ocnc3c2)CC2CN(CCc3c([nH]c4ccccc34)C(C(=O)OC)(c3cc4c(cc3OC)N(C)C3C(O)(C(=O)OC)C(OC(C)=O)C5(CC)C=CCN6CCC43C65)C2)C1` (centres unmarked) [Compound 168], for which the results for the IC50 in the assay with L1210 (Table 6) and in the assay on HCT116 (Table 6) were 5.4 nM and 5.1 nM, respectively.

Regarding `CC[C@]1(NC(=O)c2nc3ccccc3o2)C[C@H]2CN(CCc3c([nH]c4ccccc34)[C@@](C(=O)OC)(c3cc4c(cc3OC)N(C)[C@H]3[C@@](O)(C(=O)OC)[C@H](OC(C)=O)[C@]5(CC)C=CCN6CC[C@]43[C@@H]65)C2)C1` [Compound 169], the IC50 in the assay with L1210 (Table 6) and in the assay on HCT116 (Table 6) was 60 nM each time.

Take `CC[C@]1(NC(=O)c2ccc3ncsc3c2)C[C@H]2CN(CCc3c([nH]c4ccccc34)[C@@](C(=O)OC)(c3cc4c(cc3OC)N(C)[C@H]3[C@@](O)(C(=O)OC)[C@H](OC(C)=O)[C@]5(CC)C=CCN6CC[C@]43[C@@H]65)C2)C1` [Compound 170]: the values for the IC50 with L1210 (Table 6) and with HCT116 (Table 6) were 0.5 nM and 0.6 nM, respectively.

In the case of `CC[C@]1(NC(=O)c2ccc3scnc3c2)C[C@H]2CN(CCc3c([nH]c4ccccc34)[C@@](C(=O)OC)(c3cc4c(cc3OC)N(C)[C@H]3[C@@](O)(C(=O)OC)[C@H](OC(C)=O)[C@]5(CC)C=CCN6CC[C@]43[C@@H]65)C2)C1` [Compound 171], the IC50 in the assay with L1210 (Table 6) came to 0.6 nM; in the assay on HCT116 (Table 6) it was 0.7 nM.

With `CCC1(NC(=O)c2nc3ccccc3s2)CC2CN(CCc3c([nH]c4ccccc34)C(C(=O)OC)(c3cc4c(cc3OC)N(C)C3C(O)(C(=O)OC)C(OC(C)=O)C5(CC)C=CCN6CCC43C65)C2)C1` (centres unmarked) [Compound 172], the IC50 in the assay with L1210 (Table 6) came out at 180 nM; in the assay with HCT116 (Table 6), 80 nM.

In the case of `CCC1(NC(=O)c2ccc3c(c2)OCO3)CC2CN(CCc3c([nH]c4ccccc34)C(C(=O)OC)(c3cc4c(cc3OC)N(C)C3C(O)(C(=O)OC)C(OC(C)=O)C5(CC)C=CCN6CCC43C65)C2)C1` (centres unmarked) [Compound 174], the concentration for half-maximal inhibition (IC50) in the assay with L1210 (Table 6) came to 0.6 nM; in the assay with HCT116 (Table 6), 0.8 nM.

As to `CCC1(NC(=O)c2ccc3c(c2)OCCO3)CC2CN(CCc3c([nH]c4ccccc34)C(C(=O)OC)(c3cc4c(cc3OC)N(C)C3C(O)(C(=O)OC)C(OC(C)=O)C5(CC)C=CCN6CCC43C65)C2)C1` (centres unmarked) [Compound 175], the figures for the IC50 in the assay with L1210 (Table 6) and in the assay on HCT116 (Table 6) were 0.6 nM and 0.5 nM, respectively.

With `CCC1(NC(=O)c2ccc3c(c2)OCCN3C)CC2CN(CCc3c([nH]c4ccccc34)C(C(=O)OC)(c3cc4c(cc3OC)N(C)C3C(O)(C(=O)OC)C(OC(C)=O)C5(CC)C=CCN6CCC43C65)C2)C1` (centres unmarked) [Compound 176], the IC50 in the assay on L1210 (Table 6) and with HCT116 (Table 6) was 0.3 nM in each case.

`CCC1(NC(=O)c2ccc3c(c2)CCN3)CC2CN(CCc3c([nH]c4ccccc34)C(C(=O)OC)(c3cc4c(cc3OC)N(C)C3C(O)(C(=O)OC)C(OC(C)=O)C5(CC)C=CCN6CCC43C65)C2)C1` (centres unmarked) [Compound 177]: the IC50 in the assay with L1210 (Table 6) was 5.1 nM; in the assay with HCT116 (Table 6), 6.7 nM.

As to `CC[C@]1(NC(=O)c2ccc3c(c2)CCN3C(=O)OC(C)(C)C)C[C@H]2CN(CCc3c([nH]c4ccccc34)[C@@](C(=O)OC)(c3cc4c(cc3OC)N(C)[C@H]3[C@@](O)(C(=O)OC)[C@H](OC(C)=O)[C@]5(CC)C=CCN6CC[C@]43[C@@H]65)C2)C1` [Compound 178], the values for the half-inhibitory concentration (IC50) in the assay with L1210 (Table 6) and in the assay with HCT116 (Table 6) were 35 nM and 15 nM, respectively.

For the compound `CCC1(NS(=O)(=O)c2ccccc2)CC2CN(CCc3c([nH]c4ccccc34)C(C(=O)OC)(c3cc4c(cc3OC)N(C)C3C(O)(C(=O)OC)C(OC(C)=O)C5(CC)C=CCN6CCC43C65)C2)C1` (centres unmarked) [Compound 179], the IC50 stood at 45 nM in the assay on L1210 (Table 7, C20′ sulfonamides) and 50 nM with HCT116 (Table 7, C20′ sulfonamides).

With `CCC1(NS(=O)(=O)c2ccc(C)cc2)CC2CN(CCc3c([nH]c4ccccc34)C(C(=O)OC)(c3cc4c(cc3OC)N(C)C3C(O)(C(=O)OC)C(OC(C)=O)C5(CC)C=CCN6CCC43C65)C2)C1` (centres unmarked) [Compound 180], the IC50 with L1210 (Table 7, C20′ sulfonamides) was found to be 40 nM; with HCT116 (Table 7, C20′ sulfonamides), 30 nM.

`CCC1(NS(=O)(=O)c2ccc(OC)cc2)CC2CN(CCc3c([nH]c4ccccc34)C(C(=O)OC)(c3cc4c(cc3OC)N(C)C3C(O)(C(=O)OC)C(OC(C)=O)C5(CC)C=CCN6CCC43C65)C2)C1` (centres unmarked) [Compound 181]: the IC50 with L1210 (Table 7, C20′ sulfonamides) stood at 35 nM; in the assay with HCT116 (Table 7, C20′ sulfonamides), 30 nM.

With `CCC1(NS(=O)(=O)c2cccc([N+](=O)[O-])c2)CC2CN(CCc3c([nH]c4ccccc34)C(C(=O)OC)(c3cc4c(cc3OC)N(C)C3C(O)(C(=O)OC)C(OC(C)=O)C5(CC)C=CCN6CCC43C65)C2)C1` (centres unmarked) [Compound 182], the IC50 with L1210 (Table 7, C20′ sulfonamides) was determined as 450 nM; in the assay with HCT116 (Table 7, C20′ sulfonamides), 490 nM.

Take `CCC1(NS(=O)(=O)c2ccccc2[N+](=O)[O-])CC2CN(CCc3c([nH]c4ccccc34)C(C(=O)OC)(c3cc4c(cc3OC)N(C)C3C(O)(C(=O)OC)C(OC(C)=O)C5(CC)C=CCN6CCC43C65)C2)C1` (centres unmarked) [Compound 183]: the IC50 worked out at 360 nM with L1210 (Table 7, C20′ sulfonamides) and 420 nM in the assay with HCT116 (Table 7, C20′ sulfonamides).

Regarding `CCC1(NS(=O)(=O)c2c(C)cc(C)cc2C)CC2CN(CCc3c([nH]c4ccccc34)C(C(=O)OC)(c3cc4c(cc3OC)N(C)C3C(O)(C(=O)OC)C(OC(C)=O)C5(CC)C=CCN6CCC43C65)C2)C1` (centres unmarked) [Compound 184], the IC50 is 500 nM with L1210 (Table 7, C20′ sulfonamides) and 580 nM in the assay on HCT116 (Table 7, C20′ sulfonamides).
